Experimental data from patent publication US6689811B2, “Method of using caffeic acid phenethyl ester and analogs thereof as radiation sensitizers” (Wake Forest University, priority 2001, dated 2004).

Experiments:
[1] = system: Akt phosphorylation (Akt-Pser473); test: Akt phosphorylation immunoblot in RKO cells treated with CAPE; format: cell-based
Description: RKO cells were treated with low serum (LS) (0.1%) for 12 h, or low serum for 12 h followed by replacement of media with 10% serum (LS+S), in the absence (EtOH) or presence of CAPE. Two different exposures (light, dark) of the immunoblot using the anti-phosphoAkt specific antibody are shown.
(§1) 35(9): p. 790; Giri, D. and M. Ittmann, Hum Pathol, 1999. 30(4): p. 419-24; Davies, M. A., et al., Cancer Res, 1999. 59(11): p. 2551-6). Since PTEN is mutated in PC-3 cells, Akt phosphorylation levels are elevated compared to normal prostatic cells, and therefore PC-3 cells are a good model to study the regulation of Akt by CAPE and propolis.
Since Akt phosphorylation levels reflect a balance between active phosphorylation (mainly by PI-3 kinase) and dephosphorylation (by a yet unidentified phosphatase), the decrease in Akt phosphorylation could be an activation of a phosphatase rather than inhibition of a kinase. […] Thus, we performed CAPE treatments in the presence of high (10%) and low (0.1%) serum levels.

[2] = system: Akt phosphorylation (Akt-Pser473); test: Akt phosphorylation immunoblot in PC-3 cells treated with CAPE; format: cell-based
Source text: as §1

RKO cells = test: Clonogenic survival assay with CAPE and ionizing radiation, RKO cells; format: cell-based
Description: (§2) FIGS. 2A-B are graphs illustrating that CAPE sensitizes colorectal carcinoma cells RKO (A) and HT-29 cells (B) to treatments with IR. RKO (A) and HT-29 (B) cells were treated with CAPE (5 μg/ml) for the indicated times, irradiated and plated for clonogenic survival assays. CAPE treatment alone induced 10-20% reduction in clonogenic survival. Results are normalized to account for this reduction. We have also tested the ability of CAPE to sensitize cells to the cytotoxic effects of ionizing radiation. […] The Dose-enhancement ratio (DER) values at survival fraction (SF) 0.1 for pretreatment with CAPE for 24 h were 1.81 for RKO cells and a 1.68 for HT-29 cells. The radiosensitizing effect of CAPE was even more pronounced in vivo.

HT-29 cells = test: Clonogenic survival assay with CAPE and ionizing radiation, HT-29 cells; format: cell-based
Description: as §2

HT-29 xenograft tumors = test: HT-29 tumor xenografts on the flanks of nude mice, CAPE with or without IR; format: in vivo
Description: FIG. 3 is a photograph showing representative animals where CAPE radiosensitizes HT-29 xenograft tumors to IR. HT-29 cells were grown as tumor xenografts on the flanks of nude mice. When the tumors reached approximately 80 mm^3, one group of mice was treated with 0.5 ml of ethanol (EtOH) (0.1%) while the other group was treated with a single injection of CAPE (100 μg/kg). Twenty-four hours later, the tumors on the left flanks were given a single dose of IR (5 Gy). The animals were returned to their cages and tumor measurements were taken every 7 days for the following 4 weeks. The animal on the left was treated with ethanol (EtOH) (the carrier for CAPE), while the animal on the right was treated with 50 mg/kg CAPE. The tumors on the left side of the animal (right side of the picture) was treated with ionizing radiation (IR) (5Gy). Pictures were taken 4 weeks following IR. FIG. 4 is graphical representation of results from all tumors. Control (N=7), CAPE (N=5), IR (N=6) and CAPE +IR (N=4). Error bars represent ±S.E.M. The different number of tumors measured reflects the failure of some of the tumors to grow during the first week prior to treatment. FIG. 5 is a bar graph illustrating the number of days required for a tumor to triple in volume. […] FIG. 4 illustrates that tumors treated with both CAPE and IR were reduced in size by approximately 90% 4 weeks after treatment.

[3] = system: colorectal carcinoma cells; test: Survival fraction of colorectal carcinoma cells, oxaliplatin versus CAPE and oxaliplatin; format: cell-based; conditions: regimen of CAPE and oxaliplatin compared to oxaliplatin alone (FIG. 6)
Source text: FIG. 6 is a graph depicting the survival fraction of colorectal carcinoma cells when the cells are given a regimen of oxaliplatin as compared to a regimen of CAPE and oxaliplatin. As stated above, CAPE may be combined with other cancer therapies. One such therapy includes the use of oxaliplatin. Oxaliplatin is a chemotherapy drug, and also an antineoplastic agent, that is generally used in late-stage clinical development for colorectal cancer. Oxaliplatin is a platinum chemotherapy drug, similar to cisplatin and carboplatin. At the center of the drug molecule is an atom of platinum. Oxaliplatin is generally a clear liquid that is given through a drip into a vein (intravenous infusion). The infusion usually takes about 2 hours. Oxaliplatin can be given every 2 weeks or every 3 weeks as a course of treatment.

[4] = immunoblot with anti-Akt antibody (FIG. 1A)
[5] = increasing doses of CAPE, immunoblot (FIG. 1A)
[6] = pretreatment with CAPE for 24 h (5 μg/ml), then IR

In the case of O=C(/C=C/c1ccc(O)c(O)c1)OCCc1ccccc1 [CAPE, caffeic acid phenethyl ester], the “levels of Akt (anti-Akt antibody)” value [1, 4] is reported as “remain unchanged”, the “levels of Akt phosphorylation (Akt-Pser473)” value [1, 5] is reported as “reduces the levels of Akt phosphorylation” and the “rephosphorylation of Akt when serum was added back” value ([1]; low serum 12 h then 10% serum, in presence of CAPE (FIG. 1B)) is reported as “did not inhibit rephosphorylation of Akt”. For the same compound, the “Akt phosphorylation with CAPE in low serum” value ([1]; low serum (0.1%) for 12 h plus CAPE (FIG. 1B)) was “undetectable levels”, the “levels of Akt (anti-Akt antibody)” value [2, 4] was “remain unchanged” and the “levels of Akt phosphorylation (Akt-Pser473)” value [2, 5] was “reduces the levels of Akt phosphorylation”. For the same compound, the “reduction in clonogenic survival by CAPE treatment alone” value (RKO cells; CAPE 5 μg/ml, no IR) was 10-20%, the “sensitization to IR treatments” value (RKO cells; pretreatment with CAPE for 12 h or 24 h (FIG. 2A)) was “significant sensitization” and the “Dose-enhancement ratio (DER) at survival fraction (SF) 0.1” value (RKO cells; [6]) was 1.81. The “reduction in clonogenic survival by CAPE treatment alone” value (HT-29 cells; CAPE 5 μg/ml, no IR) was 10-20%, the “sensitization to IR treatments” value (HT-29 cells; pretreatment with CAPE for 12 h or 24 h (FIG. 2B)) was “significant sensitization” and the “Dose-enhancement ratio (DER) at survival fraction (SF) 0.1” value (HT-29 cells; [6]) was 1.68. For the same compound, the “number of days required for tumor to triple in volume, CAPE plus IR” value (HT-29 xenograft tumors; CAPE combined with IR (FIG. 5)) was “failed to triple in volume”, the “effect on tumor growth, CAPE alone” value (HT-29 xenograft tumors; single dose (50 mg/kg) CAPE, no IR, HT-29 xenografts in nude mice) was “minimal effect on tumor growth” and the “reduction in tumor size, CAPE and IR” value (HT-29 xenograft tumors; single injection of CAPE, IR 5 Gy 24 h later, 4 weeks after treatment (FIG. 4)) was “approximately 90%”. For the same compound, the “survival fraction of cancerous cells, CAPE plus oxaliplatin” value [3] was “decrease in the survival fraction”.
